Key:
Format in all cases: in vivo
Details in all cases: wettable powder applied 3 days after transplanting, judged after 25 days
[1] = system: Scirpus joncoides; assay: Test Example 1: herbicidal effects, paddy-field pot test
How it was run: (§1)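 Herbicidal effect and rice injury were graded on a six-step growth-inhibition scale (0: 0–10% to 5: 91–100%) at 25 days after pot application of water-diluted wettable powder, given 3 days post-transplant under flooded greenhouse conditions.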

[2] = system: annual broad-leaved weeds (Lindernia spp., Rotala indica); assay: as above
How it was run: as §1

[3] = system: Cyperus serotinus; assay: as above
How it was run: as §1

[4] = system: barnyardgrass (Echinochloa oryzicola Vasing.); assay: as above
How it was run: as §1

[5] = system: transplanted paddy-field rice; assay: Test Example 1: crop injury against transplanted paddy-field rice
How it was run: as §1

SMILES	Herbicidal effects Scirpus joncoides ([1]; chemical dosage 12.5 g/a)	Herbicidal effects Scirpus joncoides ([1]; chemical dosage 25 g/a)	Herbicidal effects Broad leaf ([2]; chemical dosage 12.5 g/a)	Herbicidal effects Broad leaf ([2]; chemical dosage 25 g/a)	Herbicidal effects Cyperus serotinus ([3]; chemical dosage 12.5 g/a)	Herbicidal effects Cyperus serotinus ([3]; chemical dosage 25 g/a)	Herbicidal effects Barnyard grass ([4]; chemical dosage 12.5 g/a)	Herbicidal effects Barnyard grass ([4]; chemical dosage 25 g/a)	Crop injury against transplanted rice ([5]; chemical dosage 12.5 g/a)	Crop injury against transplanted rice ([5]; chemical dosage 25 g/a)	Herbicidal effects Scirpus joncoides ([1]; chemical dosage 10 g/a)	Herbicidal effects Scirpus joncoides ([1]; chemical dosage 20 g/a)	Herbicidal effects Broad leaf ([2]; chemical dosage 10 g/a)	Herbicidal effects Broad leaf ([2]; chemical dosage 20 g/a)	Herbicidal effects Cyperus serotinus ([3]; chemical dosage 10 g/a)	Herbicidal effects Cyperus serotinus ([3]; chemical dosage 20 g/a)	Herbicidal effects Barnyard grass ([4]; chemical dosage 10 g/a)	Herbicidal effects Barnyard grass ([4]; chemical dosage 20 g/a)	Crop injury against transplanted rice ([5]; chemical dosage 10 g/a)	Crop injury against transplanted rice ([5]; chemical dosage 20 g/a)
Cc1cccc(Cl)c1Oc1nnc(Cl)cc1O [Example 242]	3 (Growth inhibition rate; 51 to 70%)	4 (Growth inhibition rate; 71 to 90%)	5 (Growth inhibition rate; 91 to 100%)	5 (Growth inhibition rate; 91 to 100%)	5 (Growth inhibition rate; 91 to 100%)	5 (Growth inhibition rate; 91 to 100%)	3 (Growth inhibition rate; 51 to 70%)	4 (Growth inhibition rate; 71 to 90%)	0 (Growth inhibition rate; 0 to 10%)	0 (Growth inhibition rate; 0 to 10%)	–	–	–	–	–	–	–	–	–	–
CCc1cccc(C2CC2)c1Oc1nnc(Cl)cc1O [Example 269]	–	–	–	–	–	–	–	–	–	–	5 (Growth inhibition rate; 91 to 100%)	5 (Growth inhibition rate; 91 to 100%)	5 (Growth inhibition rate; 91 to 100%)	5 (Growth inhibition rate; 91 to 100%)	5 (Growth inhibition rate; 91 to 100%)	5 (Growth inhibition rate; 91 to 100%)	2 (Growth inhibition rate; 31 to 50%)	3 (Growth inhibition rate; 51 to 70%)	3 (Growth inhibition rate; 51 to 70%)	5 (Growth inhibition rate; 91 to 100%)
CC(C)(C)c1ccccc1Oc1nnc(Cl)cc1O [Example 61]	5 (Growth inhibition rate; 91 to 100%)	5 (Growth inhibition rate; 91 to 100%)	5 (Growth inhibition rate; 91 to 100%)	5 (Growth inhibition rate; 91 to 100%)	5 (Growth inhibition rate; 91 to 100%)	5 (Growth inhibition rate; 91 to 100%)	1 (Growth inhibition rate; 11 to 30%)	2 (Growth inhibition rate; 31 to 50%)	0 (Growth inhibition rate; 0 to 10%)	0 (Growth inhibition rate; 0 to 10%)	–	–	–	–	–	–	–	–	–	–
COc1cccc(C)c1Oc1nnc(Cl)cc1O [Example 267]	–	–	–	–	–	–	–	–	–	–	4 (Growth inhibition rate; 71 to 90%)	5 (Growth inhibition rate; 91 to 100%)	5 (Growth inhibition rate; 91 to 100%)	5 (Growth inhibition rate; 91 to 100%)	5 (Growth inhibition rate; 91 to 100%)	5 (Growth inhibition rate; 91 to 100%)	1 (Growth inhibition rate; 11 to 30%)	2 (Growth inhibition rate; 31 to 50%)	0 (Growth inhibition rate; 0 to 10%)	0 (Growth inhibition rate; 0 to 10%)
CCCc1c(C)cc(C)cc1Oc1nnc(Cl)cc1O [Example 287]	5 (Growth inhibition rate; 91 to 100%)	5 (Growth inhibition rate; 91 to 100%)	5 (Growth inhibition rate; 91 to 100%)	5 (Growth inhibition rate; 91 to 100%)	1 (Growth inhibition rate; 11 to 30%)	3 (Growth inhibition rate; 51 to 70%)	0 (Growth inhibition rate; 0 to 10%)	0 (Growth inhibition rate; 0 to 10%)	0 (Growth inhibition rate; 0 to 10%)	0 (Growth inhibition rate; 0 to 10%)	–	–	–	–	–	–	–	–	–	–
CC(C)c1cccc(Cl)c1Oc1nnc(Cl)cc1O [Example 18]	3 (Growth inhibition rate; 51 to 70%)	4 (Growth inhibition rate; 71 to 90%)	5 (Growth inhibition rate; 91 to 100%)	5 (Growth inhibition rate; 91 to 100%)	5 (Growth inhibition rate; 91 to 100%)	5 (Growth inhibition rate; 91 to 100%)	0 (Growth inhibition rate; 0 to 10%)	1 (Growth inhibition rate; 11 to 30%)	1 (Growth inhibition rate; 11 to 30%)	2 (Growth inhibition rate; 31 to 50%)	–	–	–	–	–	–	–	–	–	–
O=S(=O)(Oc1cc(Cl)nnc1Oc1ccccc1C1CC1)c1ccccc1 [Example 365]	–	–	–	–	–	–	–	–	–	–	4 (Growth inhibition rate; 71 to 90%)	5 (Growth inhibition rate; 91 to 100%)	5 (Growth inhibition rate; 91 to 100%)	5 (Growth inhibition rate; 91 to 100%)	5 (Growth inhibition rate; 91 to 100%)	5 (Growth inhibition rate; 91 to 100%)	2 (Growth inhibition rate; 31 to 50%)	3 (Growth inhibition rate; 51 to 70%)	0 (Growth inhibition rate; 0 to 10%)	0 (Growth inhibition rate; 0 to 10%)
COc1cccc(F)c1Oc1nnc(Cl)cc1O [Example 239]	–	–	–	–	–	–	–	–	–	–	–	5 (Growth inhibition rate; 91 to 100%)	–	5 (Growth inhibition rate; 91 to 100%)	–	4 (Growth inhibition rate; 71 to 90%)	–	0 (Growth inhibition rate; 0 to 10%)	–	0 (Growth inhibition rate; 0 to 10%)
CCOC(=O)Oc1cc(Cl)nnc1Oc1ccccc1C1CC1 [Example 347]	–	–	–	–	–	–	–	–	–	–	5 (Growth inhibition rate; 91 to 100%)	5 (Growth inhibition rate; 91 to 100%)	5 (Growth inhibition rate; 91 to 100%)	5 (Growth inhibition rate; 91 to 100%)	5 (Growth inhibition rate; 91 to 100%)	5 (Growth inhibition rate; 91 to 100%)	3 (Growth inhibition rate; 51 to 70%)	4 (Growth inhibition rate; 71 to 90%)	0 (Growth inhibition rate; 0 to 10%)	0 (Growth inhibition rate; 0 to 10%)
Cc1ccc(Cl)cc1Oc1nnc(Cl)cc1O [Example 204]	5 (Growth inhibition rate; 91 to 100%)	5 (Growth inhibition rate; 91 to 100%)	5 (Growth inhibition rate; 91 to 100%)	5 (Growth inhibition rate; 91 to 100%)	5 (Growth inhibition rate; 91 to 100%)	5 (Growth inhibition rate; 91 to 100%)	2 (Growth inhibition rate; 31 to 50%)	2 (Growth inhibition rate; 31 to 50%)	0 (Growth inhibition rate; 0 to 10%)	0 (Growth inhibition rate; 0 to 10%)	–	–	–	–	–	–	–	–	–	–
C=CCc1ccccc1Oc1nnc(Cl)cc1OC [Comparative compound, 3-(2-allylphenoxy)-6-chloro-4-methoxypyridazine, reference compound]	–	0 (Growth inhibition rate; 0 to 10%)	–	1 (Growth inhibition rate; 11 to 30%)	–	0 (Growth inhibition rate; 0 to 10%)	–	0 (Growth inhibition rate; 0 to 10%)	–	0 (Growth inhibition rate; 0 to 10%)	–	–	–	–	–	–	–	–	–	–
Cc1ccc(C(C)C)c(Oc2nnc(Cl)cc2O)c1 [Example 212]	5 (Growth inhibition rate; 91 to 100%)	5 (Growth inhibition rate; 91 to 100%)	5 (Growth inhibition rate; 91 to 100%)	5 (Growth inhibition rate; 91 to 100%)	5 (Growth inhibition rate; 91 to 100%)	5 (Growth inhibition rate; 91 to 100%)	1 (Growth inhibition rate; 11 to 30%)	2 (Growth inhibition rate; 31 to 50%)	0 (Growth inhibition rate; 0 to 10%)	0 (Growth inhibition rate; 0 to 10%)	–	–	–	–	–	–	–	–	–	–
CCCc1cccc(F)c1Oc1nnc(Cl)cc1O [Example 234]	3 (Growth inhibition rate; 51 to 70%)	4 (Growth inhibition rate; 71 to 90%)	5 (Growth inhibition rate; 91 to 100%)	5 (Growth inhibition rate; 91 to 100%)	5 (Growth inhibition rate; 91 to 100%)	5 (Growth inhibition rate; 91 to 100%)	0 (Growth inhibition rate; 0 to 10%)	0 (Growth inhibition rate; 0 to 10%)	0 (Growth inhibition rate; 0 to 10%)	0 (Growth inhibition rate; 0 to 10%)	–	–	–	–	–	–	–	–	–	–
